pEC50: −log10 of the molar value.
Columns and labels:
Format in all cases: cell-based
GLP1R [1] = molecular target: T1, GLP1R (Homo sapiens, UniProt P43220); test: GLP1R cAMP assay, CHO cells stably expressing human GLP-1R; settings: CHO cells stably expressing GLP-1R, read-out: CHO cAMP stable EC50
Protocol: GLP-1R-mediated agonist activity was determined with a cell-based functional assay utilizing an HTRF (Homogeneous Time-Resolved Fluorescence) cAMP detection kit (cAMP Dynamic 2 Assay Kit; CisBio cat #62AM4PEC) that measures cAMP levels in the cell. The method is a competitive immunoassay between native cAMP produced by the cells and exogenous cAMP labeled with the dye d2. The tracer binding is visualized by a mAb anti-cAMP labeled with Cryptate. The specific signal (i.e., energy transfer) is inversely proportional to the concentration of cAMP in either standard or experimental sample.
Varying concentrations of each compound to be tested (in DMSO) were diluted in DMSO to obtain 200× compound working solution first and then 50 nl compounds were added to a white 384-well assay plate (Greiner 784075) with ECHO. The final DMSO concentration was 0.5%. The compound concentration range may be adjusted at any time.
Cells were removed from cryopreservation, re-suspended in 5 mL of Dulbecco's Phosphate Buffered Saline (DPBS-Sigma Cat # D8537) and centrifuged at 900 g for 5 min at 22° C. The cell pellet was then re-suspended in 1 mL of assay buffer [DPBS with 500 μM IBMX (Sigma #15879) and 0.1% BSA (Sigma # A1933). IBMX and BSA were freshly added on the day of assay]. A 10 μL sample of the cell suspension was counted on an Invitrogen Countess II to determine cell viability and cell count per mL. The remaining cell suspension was then adjusted with assay buffer to deliver 1000 viable cells per well using a Matrix Combi Multidrop reagent dispenser. 10 μL cell suspensions were added to each well of the assay plate which already contains compound. The plate was sealed and incubated at 37° C. with 5% CO2 for 30 minutes.
Following the 30 minute incubation, 5 μL of labeled d2 cAMP and 5 μL of anti-cAMP antibody (both diluted 1:20 in cell lysis buffer; as described in the manufacturer's assay protocol) were added to each well of the assay plate. The plates w ere then incubated at room temperature and after 60 minutes, changes in the HTRF signal were read with an Envision multi-label plate reader using excitation of 330 nm and emissions of 615 and 665 nm. Raw data were converted to nM cAMP by interpolation from a cAMP standard curve (as described in the manufacturer's assay protocol) and the percent effect was determined relative to a saturating concentration of the full agonist GLP-17-37 (10 nM) included on each plate. EC50 determinations were made from agonist dose-response curves analyzed with a curve fitting program using a 4-parameter logistic dose response equation. […]

GLP1R [2] = molecular target: T1, GLP1R; test: GLP1R cAMP HTRF assay, HEK293/GLP-1R/CRE/Luc (HEK293T cells); settings: read-out: EC50
Procedure, shortened: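 cAMP accumulation via HTRF after 30 min, 37 °C exposure of 1000 receptor-expressing cells/well to compound (0.5% DMSO final) in IBMX (500 μM)/0.1% BSA DPBS.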

GLP1R [3] = molecular target: T1, GLP1R; test: β-Arrestin-mediated GLP1R internalization assay (PathHunter engineered U2OS cells); parameters: host or cells: PathHunter engineered U2OS cells; settings: averaged Bmax, percentage of control GLP-1 (7-37), highest concentration tested
Source text: A similar assay can also be used to assess the extent of signal attenuation due to GLP-1R internalization (the β-Arrestin Internalization Assay). In this assay, activated GLP1R Internalization cells were engineered to co-express an untagged GLP1R, Enzyme Acceptor (EA) tagged β-Arrestin, and a ProLink™ (PK) tag localized to the endosomes. Activation of the GLP1R induces β-Arrestin recruitment, which leads to internalization of the Receptor/Arrestin-EA complex in PK-tagged endosomes. This forces complementation of the two β-galactosidase enzyme fragments (EA and PK) to form a functional enzyme that hydrolyzes substrate to generate a chemiluminescent signal. These cells have been modified to prevent long term propagation and expansion using a proprietary compound that has no apparent effect on assay performance.
Specifically, PathHunter engineered U2OS cells from the assay kit (Cat #93-0724E3CP0L) were plated at a density of 2000 cells/20 μL/well in a 384-well white/clear bottom plates (Greiner Cat #781098). Frozen cells were quickly thawed and 10 mL of cell plating medium (provided by the kit) was added to thawed cells. Cells were stored in a 37° C. incubator and kept for approximately 48 hours until ready for the assay.
Reference and test compounds were dissolved in 100% DMSO. 5× concentration of an agonist was prepared in serum free DMEM (Thermo Cat #11965). 5 μL of this solution was added to 20 μL cell medium in assay plate for a final top concentration of 10 μM. Plates were incubated at 37° C. for 180 min.
Following 180 min incubation, detection reagents were made up by combining 1 part Galacton Star Substrate with 5 parts Emerald II™ Solution, and 19 parts of PathHunter Cell Assay Buffer, respectively. 12.5 μL detection reagent was added to each well. The plates were then incubated at room temperature for 60 min. Plates were then read on Envision for 0.1 sec/well.
EC50 determinations were made from agonist dose-response curves analyzed with a curve fitting program using a 4-parameter logistic dose response equation.

T1 sequence (P43220 24-463): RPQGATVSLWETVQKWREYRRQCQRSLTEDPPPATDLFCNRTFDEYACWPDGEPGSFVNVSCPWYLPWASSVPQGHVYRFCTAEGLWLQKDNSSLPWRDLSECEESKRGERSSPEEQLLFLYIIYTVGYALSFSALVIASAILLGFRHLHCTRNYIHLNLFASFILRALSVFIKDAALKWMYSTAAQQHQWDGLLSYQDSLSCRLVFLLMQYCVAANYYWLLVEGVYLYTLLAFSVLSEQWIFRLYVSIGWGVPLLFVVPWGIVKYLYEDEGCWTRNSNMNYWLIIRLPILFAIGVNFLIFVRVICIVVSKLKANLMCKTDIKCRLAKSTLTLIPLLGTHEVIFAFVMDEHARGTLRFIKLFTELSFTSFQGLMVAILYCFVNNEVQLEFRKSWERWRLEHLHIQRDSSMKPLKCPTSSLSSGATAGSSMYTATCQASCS

| SMILES | pEC50 (GLP1R [1]) | pEC50 (GLP1R [2]) | Bmax (POC) (GLP1R [3]) |
| --- | --- | --- | --- |
| N#Cc1ccc(COc2cncc(C3CCN(Cc4nc5ccc(C(=O)O)cc5n4C[C@@H]4CCO4)CC3)n2)c(F)c1 [Compound 22, (S)-2-((4-(6-(4-cyano-2-fluorobenzyloxy)pyrazin-2-yl)piperidin-1-yl)methyl)-1-(oxetan-2-ylmethyl)-1 h-benzo[d]imidazole-6-carboxylic acid] | ≥ 6.00 | ≥ 6.82 | 7.40 ± 6.97 |
| O=C(O)c1ccc2nc(CN3CC=C(c4cccc(OCc5ccc(-c6cccnc6)cc5)n4)CC3)n(C[C@@H]3CCO3)c2c1 [Compound 242, (S)-1-(oxetan-2-ylmethyl)-2-((6-((4-(pyridin-3-yl)benzyl)oxy)-3′,6′-dihydro-[2,4′-bipyridin]-1′(2′H)-yl)methyl)-1H-benzo[d]imidazole-6-carboxylic add] | – | ≥ 7.82 | 15.4 |
| N#Cc1ccc(COc2cncc(C3=CCN(Cc4nc5ccc(C(=O)O)cc5n4C[C@@H]4CCO4)CC3)n2)c(F)c1 [Compound 23, (S)-2-((4-(6-(4-cyano-2-fluorobenzyloxy)pyrazin-2-yl)-5,6-dihydropyridin-1(2H)-yl)methyl)-1-(oxetan-2-ylmethyl)-1 h-benzo[d]imidazole-6-carboxylic acid] | ≥ 6.00 | ≥ 7.82 | 8.92 ± 3.70 |
| N#Cc1ccc(COc2nc(C3=CCN(Cc4nc5ccc(C(=O)O)cc5n4C[C@@H]4CCO4)CC3)ccc2F)c(F)c1 [Compound 222, (S)-2-((6-((4-cyano-2-fluorobenzyl)oxy)-5-fluoro-3′,6′-dihydro-[2,4′-bipyridin]-1′(2′H)-yl)methyl)-1-(oxetan-2-ylmethyl)-1H-benzo[d]imidazole-6-carboxylic acid] | ≥ 7.82 | ≥ 7.82 | 31.4 ± 2.62 |
| O=C(O)c1ccc2nc(CN3CC=C(c4ccnc(OCc5ccc(Cl)cc5F)n4)CC3)n(C[C@@H]3CCO3)c2c1 [Compound 35, (S)-2-((4-(2-((4-chloro-2-fluorobenzyl)oxy)pyrimidin-4-yl)-3,6-dihydropyridin-1(2H)-yl)methyl)-1-(oxetan-2-ylmethyl)-1H-benzo[d]imidazole-6-carboxylic add] | ≥ 6.82 | ≥ 7.82 | 14.3 ± 9.21 |
| N#Cc1ccc(COc2cccc(C3=CCN(Cc4nc5ccc(C(=O)O)nc5n4C[C@@H]4CCO4)CC3)n2)c(F)c1 [Compound 225, (S)-2-((6-((4-cyano-2-fluorobenzyl)oxy)-3′,6′-dihydro-[2,4′-bipyridin]-1′(2′H)-yl)methyl)-3-(oxetan-2-ylmethyl)-3H-imidazo[4,5-b]pyridine-5-carboxylic add] | ≥ 7.82 | ≥ 7.82 | 24.0 ± 6.70 |
| O=C(O)c1ccc2nc(CN3CCC(c4cccc(OCc5ccc(Cl)cc5F)c4)CC3)n(C[C@@H]3CCO3)c2c1 [Compound 239, (S)-2-((4-(3-((4-chloro-2-fluorobenzyl)oxy)phenyl)piperidin-1-yl)methyl)-1-(oxetan-2-ylmethyl)-1H-benzo[d]imidazole-6-carboxylic acid] | ≥ 6.82 | ≥ 7.82 | 14.1 ± 1.57 |
| O=C(O)c1ccc2nc(CN3CC=C(c4cccc(OCc5ccc(-n6ccnc6)cc5)n4)CC3)n(C[C@@H]3CCO3)c2n1 [Compound 245, (S)-2-((4-(6-(4-(1H-imidazol-1-yl)benzyloxy)pyridin-2-yl)-5,6-dihydropyridin-1(2H)-yl)methyl)-3-(oxetan-2-ylmethyl)-3H-imidazo[4,5-b]pyridine-5-carboxylic add] | ≥ 7.82 | ≥ 7.82 | 27.7 |
| O=C(O)c1ccc2nc(CN3CC=C(c4cncc(OCc5ccc(Cl)cc5F)n4)CC3)n(C[C@@H]3CCO3)c2c1 [Compound 34, (S)-2-((4-(6-(4-chloro-2-fluorobenzyloxy)pyrazin-2-yl)-5,6-dihydropyridin-1(2H)-yl)methyl)-1-(oxetan-2-ylmethyl)-1 h-benzo[d]imidazole-6-carboxylic acid] | ≥ 6.82 | ≥ 7.82 | 8.88 ± 3.19 |

Results, then the compound that gave them:

| pEC50 (GLP1R [1]) | pEC50 (GLP1R [2]) | Bmax (POC) (GLP1R [3]) | SMILES |
| --- | --- | --- | --- |
| ≥ 6.82 | ≥ 7.82 | 30.0 | O=C(O)c1ccc2nc(CN3CC=C(c4ccc(F)c(OCc5ccc(Cl)cc5F)c4)CC3)n(C[C@@H]3CCO3)c2n1 [Compound 236, (S)-2-((4-(3-((4-chloro-2-fluorobenzyl)oxy)-4-fluorophenyl)-5,6-dihydropyridin-1(2H)-yl)methyl)-3-(oxetan-2-ylmethyl)-3H-imidazo[4,5-b]pyridine-5-carboxylic acid] |
| ≥ 6.82 | ≥ 7.82 | 17.6 ± 6.62 | O=C(O)c1ccc2nc(CN3CC=C(c4cccc(OCc5ccc(Cl)cc5F)c4)CC3)n(C[C@@H]3CCO3)c2c1 [Compound 28, (S)-2-((4-(3-((4-chloro-2-fluorobenzyl)oxy)phenyl)-3,6-dihydropyridin-1(2H)-yl)methyl)-1-(oxetan-2-ylmethyl)-1 h-benzo[d]imidazole-6-carboxylic add] |
| ≥ 6.82 | ≥ 7.82 | 52.8 ± 1.14 | O=C(O)c1ccc2nc(CN3CC=C(c4ccc(F)c(OCc5ccc(Cl)cc5F)c4)CC3)n(C[C@@H]3CCO3)c2c1F [Compound 238, (S)-2-((4-(3-((4-chloro-2-fluorobenzyl)oxy)-4-fluorophenyl)-3,6-dihydropyridin-1(2H)-yl)methyl)-7-fluoro-1-(oxetan-2-ylmethyl)-1H-benzo[d]imidazole-6-carboxylic acid] |
| ≥ 6.82 | ≥ 7.82 | 22.5 ± 1.41 | O=C(O)c1ccc2nc(CN3CC=C(c4cccc(OCc5ccc(Cl)cc5F)c4)CC3)n(C[C@@H]3CCO3)c2n1 [Compound 224, (S)-2-((4-(3-((4-chloro-2-fluorobenzyl)oxy)phenyl)-3,6-dihydropyridin-1(2H)-yl)methyl)-3-(oxetan-2-ylmethyl)-3H-imidazo[4,5-b]pyridine-5-carboxylic acid] |
| ≥ 6.82 | ≥ 7.82 | 17.7 ± 1.20 | O=C(O)c1ccc2nc(CN3CC=C(c4cccc(OCc5ccc(Cl)cc5F)c4)CC3)n(C[C@@H]3CCO3)c2c1F [Compound 237, (S)-2-((4-(3-((4-chloro-2-fluorobenzyl)oxy)phenyl)-3,6-dihydropyridin-1(2H)-yl)methyl)-7-fluoro-1-(oxetan-2-ylmethyl)-1H-benzo[d]imidazole-6-carboxylic acid] |
| ≥ 7.82 | ≥ 7.82 | 30.0 ± 6.40 | O=C(O)c1ccc2nc(CN3CC=C(c4cccc(OCc5ccc(Cl)cc5F)n4)CC3)n(C[C@@H]3CCO3)c2c1 [Compound 221, (S)-2-((6-((4-chloro-2-fluorobenzyl)oxy)-3′,6′-dihydro-[2,4′-bipyridin]-1′(2′H)-yl)methyl)-1-(oxetan-2-ylmethyl)-1H-benzo[d]imidazole-6-carboxylic acid] |

Reference: patent US10844049B2, “GLP-1R agonists and uses thereof” (QILU REGOR THERAPEUTICS INC., priority 2018, dated 2020)
